The record followed here is ChEMBL document CHEMBL1201862, “PubChem BioAssay data set” (2004).

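Each compound was tested at five concentrations against cells in 96-well plates for 48 hours. Here, GI50 denotes the concentration required for 50% inhibition of growth.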 Active and inactive are the calls of the source. No stated cut-off is given here; in the data, active = GI50 up to about 1.1 µM and inactive = higher.

Among the test systems are A498; ACHN; HCT-15; HL-60; HOP-62; HT-29; NCI-H522; OVCAR-5; RPMI-8226; SK-MEL-2; SK-MEL-5; SN12C; TK-10; U-251; UACC-257; UACC-62; UO-31; SF-539.
Common to all, as to experiment: NCI tumour cell line growth inhibition, 48 h

As to `O=C(/C=C1\NC(=O)c2ccccc2N1)c1ccncc1`, the GI50 was > 100 µM (inactive) with A498; > 100 µM (inactive) in the assay with ACHN; greater than 100 µM with HCT-15; > 100 µM (inactive) in the assay with HL-60; > 100 µM (inactive) in the assay with HOP-62; > 100 µM (inactive) with HT-29. The GI50 with NCI-H522, in the assay with OVCAR-5, in the assay with RPMI-8226, in the assay with SK-MEL-2, in the assay on SK-MEL-5 and in the assay on SN12C was > 100 µM (inactive) in each case. Further, the GI50 in the assay with TK-10, in the assay with U-251, in the assay with UACC-257, with UACC-62 and with UO-31 was > 100 µM (inactive) each time.
As to `CC1=NN(c2ccccc2)C(=O)C1/N=N/c1ccc(Br)cc1C` (stereo not given), the GI50 in the assay on A498 was 57 µM (inactive); in the assay on ACHN it was 37.3 µM (inactive); in the assay on HCT-15, greater than 100 µM; with HL-60, > 100 µM (inactive); in the assay on HOP-62, 27.9 µM (inactive); with HT-29, > 100 µM (inactive). In addition, the GI50 was > 100 µM (inactive) in the assay with OVCAR-5; > 100 µM (inactive) with RPMI-8226; 58.9 µM (inactive) in the assay on SF-539; 56.6 µM (inactive) with SK-MEL-2; > 100 µM (inactive) with SK-MEL-5; > 100 µM (inactive) with SN12C. Further, the GI50 is 39.4 µM (inactive) in the assay on TK-10, 38.3 µM (inactive) in the assay with U-251, > 100 µM (inactive) with UACC-257 and > 100 µM (inactive) in the assay on UACC-62.
`O=C(Nc1c(Cl)cc([N+](=O)[O-])cc1Cl)C(=O)C(C(=O)c1ccncc1)C1OC(=O)c2ccccc21` (stereo not given): the GI50 is > 100 µM (inactive) with A498; > 100 µM (inactive) with ACHN; greater than 100 µM in the assay with HCT-15; > 100 µM (inactive) with HL-60; > 100 µM (inactive) with HOP-62; > 100 µM (inactive) with HT-29. The GI50 with NCI-H522, with OVCAR-5, with RPMI-8226, with SN12C, in the assay on TK-10 and in the assay on U-251 was > 100 µM (inactive) throughout. The GI50 in the assay with UACC-257, in the assay with UACC-62 and in the assay with UO-31 was > 100 µM (inactive) throughout.
With `CCOC(=O)Nc1ccc(S(=O)(=O)OC)cc1.CCOC(=O)Nc1ccc(S(=O)(=O)OC)cc1.NNC(=O)c1ccncc1`, the GI50 is > 50 µM (inactive) in the assay on A498; > 50 µM (inactive) in the assay on ACHN; greater than 50 µM in the assay on HCT-15; > 50 µM (inactive) in the assay with HL-60; > 50 µM (inactive) with HOP-62; 44.7 µM (inactive) in the assay on HT-29. Moreover, the GI50 in the assay with OVCAR-5 was > 50 µM (inactive); in the assay on RPMI-8226, 14.6 µM (inactive); in the assay on SF-539, > 50 µM (inactive); in the assay with SK-MEL-2, > 50 µM (inactive); in the assay on SK-MEL-5 it was > 50 µM (inactive); with SN12C it was > 50 µM (inactive). The GI50 with TK-10 was > 50 µM (inactive); in the assay on U-251, 11.1 µM (inactive); in the assay with UACC-257 it was > 50 µM (inactive); in the assay with UACC-62 it was > 50 µM (inactive); in the assay on UO-31, > 50 µM (inactive).
As to `CC1(C(=O)Nc2ccc3cc4ccccc4cc3c2)CC2(C)CC(C)(C1)C(O)NC2=O` (stereo not given), the GI50 is > 100 µM (inactive) in the assay on A498; 36.7 µM (inactive) in the assay with ACHN; greater than 100 µM with HCT-15; 20.9 µM (inactive) in the assay with HL-60; > 100 µM (inactive) in the assay on HOP-62; 92.5 µM (inactive) in the assay with HT-29. Moreover, the GI50 with OVCAR-5 was > 100 µM (inactive); with RPMI-8226, 61.1 µM (inactive); in the assay on SF-539, > 100 µM (inactive); with SK-MEL-2 it was > 100 µM (inactive); in the assay with SK-MEL-5, > 100 µM (inactive); in the assay with SN12C it was > 100 µM (inactive). Moreover, the GI50 with TK-10 was 63 µM (inactive); in the assay on U-251, > 100 µM (inactive); with UACC-257, > 100 µM (inactive); with UACC-62, > 100 µM (inactive); in the assay on UO-31, > 100 µM (inactive).
Take `CC(C)c1ccc(O)c(Cc2cc(C(C)C)cc(Cc3cc(C(C)C)ccc3O)c2O)c1`: the GI50 in the assay with A498 is 1.46 µM (inactive); with ACHN it was 3.56 µM (inactive); with HCT-15, 1.7 µM; in the assay with HL-60, 2 µM (inactive); in the assay with HOP-62 it was 1.69 µM (inactive); in the assay on HT-29, 2.25 µM (inactive). The GI50 in the assay with NCI-H522 was 1.57 µM (inactive); with OVCAR-5, 1.75 µM (inactive); in the assay on RPMI-8226, 2.08 µM (inactive); with SK-MEL-2, 1.61 µM (inactive); in the assay on SK-MEL-5 it was 1.62 µM (inactive); in the assay with SN12C it was 1.77 µM (inactive). In addition, the GI50 was 1.93 µM (inactive) with TK-10; 1.69 µM (inactive) in the assay on U-251; 1.71 µM (inactive) with UACC-257; 2.38 µM (inactive) in the assay with UACC-62; 1.68 µM (inactive) in the assay with UO-31.
For `O=C(c1ccc(Cl)cc1)N(C(=S)N1CCN(c2ccccc2)CC1)C1CCCCC1`, the GI50 in the assay with ACHN was > 100 µM (inactive); in the assay with HCT-15, greater than 100 µM; with HL-60 it was 94.6 µM (inactive); in the assay on HOP-62 it was > 100 µM (inactive); with HT-29, > 100 µM (inactive); in the assay on NCI-H522, > 100 µM (inactive). Moreover, the GI50 in the assay on OVCAR-5 is > 100 µM (inactive); in the assay on RPMI-8226 it was 63.5 µM (inactive); with SF-539 it was > 100 µM (inactive); in the assay with SK-MEL-2 it was > 100 µM (inactive); in the assay on SK-MEL-5, > 100 µM (inactive); in the assay on SN12C, > 100 µM (inactive). Moreover, the GI50 is > 100 µM (inactive) with TK-10; > 100 µM (inactive) with U-251; 91.2 µM (inactive) with UACC-257; > 100 µM (inactive) in the assay on UACC-62; > 100 µM (inactive) in the assay on UO-31.
Take `COc1ccc(/C=C(\C(C)=O)C(=O)Nc2ccccc2)cc1`: the GI50 with ACHN is > 100 µM (inactive); with HCT-15 it was greater than 100 µM; in the assay on HL-60 it was > 100 µM (inactive); in the assay with HOP-62, > 100 µM (inactive); in the assay with HT-29 it was > 100 µM (inactive); in the assay on NCI-H522 it was > 100 µM (inactive). Also, the GI50 in the assay with OVCAR-5, in the assay on RPMI-8226, with SF-539, in the assay on SK-MEL-2, in the assay on SK-MEL-5 and in the assay on SN12C was > 100 µM (inactive) throughout. Moreover, the GI50 in the assay with TK-10, in the assay with U-251, with UACC-257, in the assay with UACC-62 and in the assay with UO-31 was > 100 µM (inactive) throughout.
Take `COc1ccc(NC(=O)C(=O)c2c(O)c3ccc(O)cc3oc2=O)c([N+](=O)[O-])c1`: the GI50 was > 100 µM (inactive) with A498; > 100 µM (inactive) with ACHN; greater than 100 µM in the assay on HCT-15; > 100 µM (inactive) in the assay with HL-60; > 100 µM (inactive) in the assay on HT-29; > 100 µM (inactive) with NCI-H522. Moreover, the GI50 with OVCAR-5, with SF-539, in the assay on SK-MEL-2, in the assay on SK-MEL-5, with TK-10 and with UACC-257 was > 100 µM (inactive) in each case. In addition, the GI50 with UACC-62 and with UO-31 was > 100 µM (inactive) in each case.
With `c1ccc2c3c([nH]c2c1)C1C2CCCCN2C(c2ccncc2)N1CC3` (stereo not given), the GI50 is 46.1 µM (inactive) in the assay on ACHN; 35.5 µM in the assay on HCT-15; 21.5 µM (inactive) with HL-60; 52.5 µM (inactive) in the assay with HOP-62; 33.1 µM (inactive) in the assay with HT-29; 39.2 µM (inactive) in the assay on NCI-H522. Also, the GI50 in the assay on OVCAR-5 is 35.7 µM (inactive); in the assay with RPMI-8226, 27.4 µM (inactive); in the assay with SF-539, 58.3 µM (inactive); in the assay with SK-MEL-2, 39.4 µM (inactive); in the assay on SK-MEL-5, 43 µM (inactive); in the assay with SN12C, 39.1 µM (inactive). Besides, the GI50 in the assay with U-251 is 39.9 µM (inactive); in the assay on UACC-257, 51.2 µM (inactive); with UACC-62, 36.5 µM (inactive); in the assay with UO-31 it was 11.5 µM (inactive).
Regarding `O=C(N/C=C1\C(=O)Oc2ccccc2C1=O)Nc1ccccc1`, the GI50 in the assay with A498 is 35.3 µM (inactive); in the assay with ACHN, 27.7 µM (inactive); in the assay on HCT-15, 40.3 µM; with HL-60, > 100 µM (inactive); in the assay with HT-29, > 100 µM (inactive); in the assay on NCI-H522, 58.5 µM (inactive). For the same molecule, the GI50 was 61.5 µM (inactive) with OVCAR-5; > 100 µM (inactive) in the assay with RPMI-8226; 43.8 µM (inactive) in the assay on SF-539; 18.5 µM (inactive) with SK-MEL-2; 25.8 µM (inactive) with SK-MEL-5; 32.8 µM (inactive) with SN12C. Besides, the GI50 in the assay on TK-10 was 34 µM (inactive); in the assay on U-251 it was 40.2 µM (inactive); in the assay with UACC-257 it was 91.2 µM (inactive); with UACC-62, 38.5 µM (inactive); in the assay on UO-31, 28.3 µM (inactive).
`CCn1c(C)nn2c(=O)c3ccccc3nc2c1=O`: the GI50 in the assay with A498 is > 100 µM (inactive); with ACHN, > 100 µM (inactive); in the assay with HCT-15, greater than 100 µM; in the assay on HL-60, > 100 µM (inactive); in the assay with HOP-62, > 100 µM (inactive); with HT-29 it was > 100 µM (inactive). Further, the GI50 in the assay on OVCAR-5, with RPMI-8226, in the assay on SF-539, in the assay on SK-MEL-2, in the assay with SK-MEL-5 and with TK-10 was > 100 µM (inactive) each time. Besides, the GI50 in the assay on U-251, in the assay on UACC-257 and in the assay on UACC-62 was > 100 µM (inactive) throughout.
